Reference: patent publication US20260207565A1, “COMPOUNDS THAT INHIBIT PKMYT1” (Exelixis, Inc., priority 2022, published 2026)
pIC50: −log10 of the molar value.

Key:
[1] = system: phosphorylation of CDK1 at Thr14 in HCC1806 cells; assay: Cell lysate AlphaLISA assay measuring inhibition of phosphorylation of CDK1 Thr14; assay type: cell-based; conditions: Homo sapiens, HCC1806, 4 h, compounds incubated 4 hours, AlphaLISA SureFire Ultra CDK1 Thr14, read-out: Cellular IC50
Protocol: (§1) Biochemical IC50 values were determined via ADP-Glo™ assay. Cellular IC50 values were determined via AlphaLISA assay.
Cell lysate AlphaLISA® assay measuring inhibition of phosphorvlation of CDK1 Thr14. Inhibition of phosphorylation of CDK1 at Thr14 was determined using AlphaLISAn SureFire® Ultra™ Kit from Perkin Elmer (ALSU-PCDK1-A10K). HCC1806 cells were seeded at 2K cells per well (50 μl/well) in 384-well plates (Corning 3570) and stored overnight at 37° C. and 5% CO2. The following day, the compounds dissolved in DMSO were introduced to the cells and incubated for 4 hours at 37° C. and 5% CO2. The cells were then washed with PBS using Blue® Washer and 10 μl of lysis buffer containing protease inhibitor was added. The plate was placed on an orbital shaker (at 4° C.) for 30 minutes and stored overnight at −80° C. for complete lysing. The next day, the plates were thawed at room temperature for at least 30 min. Reagents were prepared in a dimmed light setting (<100 lumens). The assay was run by first adding 5 μl of the acceptor mix (reaction buffer 1: reaction buffer 2:activation buffer:acceptor beads 47:47:4:2), covering the plate with foil, shaking for 2 minutes, and incubating at RT for 60 minutes. The donor mix (dilution buffer:donor beads 47:3) was then added at 5 μl per well, placed on the shaker for 2 minutes and incubated at RT for 60 minutes before reading the plates on a PHERAstar® plate reader. The results were normalized to DMSO (0% Inhibition) and 3 μM of reference compound.

PKMYT1 = target: T1, PKMYT1 (Homo sapiens, UniProt Q99640); assay: ADP-Glo PKMYT1 ATP-depletion assay; conditions: 50 nM PKMYT1, 13.3 nM CDK1, 88 μM ATP, 120 minutes at RT, read-out: Biochemical IC50
T1 construct: PKMYT1 (93 kD, full length, N-terminal GST tag from Signal Chem); GST (N); purchased Signal Chem
T1 sequence (Q99640 1-499): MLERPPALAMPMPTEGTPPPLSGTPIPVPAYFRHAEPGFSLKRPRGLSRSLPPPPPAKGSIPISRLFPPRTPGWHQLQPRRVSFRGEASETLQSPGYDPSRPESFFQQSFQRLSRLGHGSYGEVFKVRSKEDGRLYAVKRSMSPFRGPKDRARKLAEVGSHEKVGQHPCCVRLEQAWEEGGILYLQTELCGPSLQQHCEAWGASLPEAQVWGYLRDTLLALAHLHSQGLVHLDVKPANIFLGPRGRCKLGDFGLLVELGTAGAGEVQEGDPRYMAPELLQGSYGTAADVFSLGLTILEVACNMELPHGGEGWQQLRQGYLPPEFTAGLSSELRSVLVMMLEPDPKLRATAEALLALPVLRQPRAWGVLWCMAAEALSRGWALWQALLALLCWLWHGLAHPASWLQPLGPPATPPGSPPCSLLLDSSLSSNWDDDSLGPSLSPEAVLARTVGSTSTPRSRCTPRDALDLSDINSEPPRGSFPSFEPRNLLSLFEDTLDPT
Protocol: as §1
ADP-Glo™ PKMYT1 ATP-depletion assay. The activity of PKMYT1 is measured using a luciferase-luciferin based ATP detection reaction to quantify ATP depletion resulting from kinase-catalyzed phosphoryl transfer to CDK1 or autophosphorylation of PKMYT1. The ADP generated as a byproduct of the reaction is converted to ATP and used to drive a luciferase reaction. Test compounds were dissolved in DMSO and dispensed into Corning 3824 384-well plates prior to the experiment such that the final DMSO concentration was <10%. To the compounds was added 3 μL of PKMYT1 (93 kD, full length, N-terminal GST tag from Signal Chem). The reaction was started by the addition of 2 μL of CDK1 (58 kDa, full length, N-terminal GST tag from Signal Chem) and ATP in assay buffer (50 mM Hepes, 40 mM NaCl, 10 mM MgCl2, 1 mM DTT, 0.1 mg/mL BSA, 2.5 mM MnCl2). Final assay concentrations were 50 nM PKMYT1, 13.3 nM CDK1, and 88 μM ATP. Plates were centrifuged for 1 minute at 1000 RPM and incubated at RT for 120 minutes. After the incubation period, ADP-Glo™ reagent was added and the plates were incubated for another 40 minutes before finally adding the kinase detection reagent, 30 minutes after the addition, plates were placed on a PHERAstar® plate reader and read using the Luminescence Protocol, integration time at 0.5 seconds.

Row | pIC50 [1] | pIC50 (PKMYT1) | Structure (SMILES)
1 | > 7.30 | > 7.30 | CCn1cc(-c2cn[nH]c2)c2c(-c3c(C)ccc(O)c3C)cc(C(N)=O)nc21 (single isomer, unassigned) [Compound 69, (P)-1-Ethyl-4-(3-hydroxy-2,6-dimethylphenyl)-3-(1H-pyrazol-4-yl)-1H-pyrrolo[2,3-b]pyridine-6-carboxamide]
2 | > 7.30 | > 7.30 | Cc1ccc(O)c(C)c1-c1c(N)c(C(N)=O)nc2c1ncn2C1CC1 (single isomer, unassigned) [Compound 77, (P)-6-amino-3-cyclopropyl-7-(3-hydroxy-2,6-dimethylphenyl)-3H-imidazo[4,5-b]pyridine-5-carboxamide]
3 | > 7.30 | > 7.30 | CCn1cc(C#N)c2c(-c3c(C)ccc(O)c3C)cc(C(N)=O)nc21 (single isomer, unassigned) [Compound 79]
4 | > 7.30 | > 7.30 | CCn1cc(C#N)c2c(-c3ccc(C)c(O)c3C)c(N)c(C(N)=O)nc21 (single isomer, unassigned) [Compound 82, (M)-5-amino-3-cyano-1-ethyl-4-(3-hydroxy-2,4-dimethylphenyl)-1H-pyrrolo[2,3-b]pyridine-6-carboxamide]
5 | > 7.30 | > 7.30 | Cc1ccc(O)c(C)c1-c1c(N)c(C(N)=O)nc2c1ncn2C(C)C (single isomer, unassigned) [Compound 83, (P)-6-amino-7-(3-hydroxy-2,6-dimethylphenyl)-3-isopropyl-3H-imidazo[4,5-b]pyridine-5-carboxamide]
6 | > 7.30 | > 7.30 | Cc1ccc(O)c(C)c1-c1c(N)c(C(N)=O)nc2c1nc(C)n2C(C)C (single isomer, unassigned) [Compound 84, (P)-6-amino-7-(3-hydroxy-2,6-dimethylphenyl)-3-isopropyl-2-methyl-3H-imidazo[4,5-b]pyridine-5-carboxamide]
7 | 6.30 to 7.30 | > 7.30 | Cc1ccc(O)c(C)c1-c1c(N)c(C(N)=O)nc2c1ncn2C [Compound 1, 6-Amino-7-(3-hydroxy-2,6-dimethylphenyl)-3-methyl-3H-imidazo[4,5-b]pyridine-5-carboxamide]
8 | 6.30 to 7.30 | > 7.30 | Cn1cc(C#N)c2c(-c3cccc(O)c3)c(N)c(C(N)=O)nc21 [Compound 7, 5-Amino-3-cyano-4-(3-hydroxyphenyl)-1-methyl-1H-pyrrolo[2,3-b]pyridine-6-carboxamide]
9 | 6.30 to 7.30 | > 7.30 | Cc1c(F)cncc1-c1c(N)c(C(N)=O)nc2c1c(C#N)cn2C [Compound 8, 5-Amino-3-cyano-4-(5-fluoro-4-methylpyridin-3-yl)-1-methyl-1H-pyrrolo[2,3-b]pyridine-6-carboxamide]
10 | 6.30 to 7.30 | > 7.30 | Cc1c(O)cccc1-c1c(N)c(C(N)=O)nc2c1c(C#N)c(C)n2C [Compound 9, 5-amino-3-cyano-4-(3-hydroxy-2-methylphenyl)-1,2-dimethyl-1H-pyrrolo[2,3-b]pyridine-6-carboxamide]
11 | 6.30 to 7.30 | > 7.30 | Cc1c(Cl)cncc1-c1c(N)c(C(N)=O)nc2c1c(C#N)c(C)n2C [Compound 12]
12 | > 7.30 | > 7.30 | Cc1ccc(O)c(C)c1-c1c(N)c(C(N)=O)nc2c1c(C#N)cn2C [Compound 13]
13 | > 7.30 | > 7.30 | Cc1c(O)cccc1-c1c(N)c(C(N)=O)nc2c1c(C#N)c(C)n2CC(F)(F)F [Compound 14]
14 | 6.00 to 6.30 | > 7.30 | Cc1ccc(O)c(C)c1-c1c(N)c(C(N)=O)cc2c1nc(C)n2C [Compound 15, 5-amino-4-(3-hydroxy-2,6-dimethylphenyl)-1,2-dimethyl-1H-benzo[d]imidazole-6-carboxamide]
15 | ≤ 5.30 | 5.30 to 6.00 | Cc1ccc(O)c(C)c1-c1cc(C(N)=O)nc2cn[nH]c12 [Compound 16, 7-(3-hydroxy-2,6-dimethylphenyl)-1H-pyrazolo[4,3-b]pyridine-5-carboxamide]
16 | ≤ 5.30 | 5.30 to 6.00 | Cc1ccc(O)c(C)c1-c1cc(C(N)=O)nc2c1cnn2C [Compound 17, 4-(3-hydroxy-2,6-dimethylphenyl)-1-methyl-pyrazolo[3,4-b]pyridine-6-carboxamide]
17 | ≤ 5.30 | 5.30 to 6.00 | Cc1ccc(O)c(C)c1-c1cc(C(N)=O)nc2cnn(C)c12 [Compound 18, 7-(3-hydroxy-2,6-dimethylphenyl)-1-methyl-pyrazolo[4,3-b]pyridine-5-carboxamide]
18 | ≤ 5.30 | ≤ 5.30 | CNC(=O)c1cc(-c2c(C)ccc(O)c2C)c2[nH]ncc2n1 [Compound 19, 7-(3-hydroxy-2,6-dimethylphenyl)-N-methyl-1H-pyrazolo[4,3-b]pyridine-5-carboxamide]
19 | ≤ 5.30 | ≤ 5.30 | Cc1ccc(O)c(C)c1-c1cc(C(=O)N(C)C)nc2cn[nH]c12 [Compound 20]
20 | ≤ 5.30 | 6.00 to 6.30 | Cc1ccc(O)c(C)c1-c1cc(C(N)=O)nc2c1ccn2C [Compound 21, 4-(3-hydroxy-2,6-dimethylphenyl)-1-methyl-pyrrolo[2,3-b]pyridine-6-carboxamide]
21 | 6.30 to 7.30 | > 7.30 | Cc1ccc(O)c(C)c1-c1cc(C(N)=O)nc2c1c(C#N)cn2C [Compound 22, 3-cyano-4-(3-hydroxy-2,6-dimethylphenyl)-1-methyl-pyrrolo[2,3-b]pyridine-6-carboxamide]
22 | 5.30 to 6.00 | 6.30 to 7.30 | Cc1ccc(O)c(C)c1-c1cc(C(N)=O)nc2c1c(Br)cn2C [Compound 24]
23 | 6.00 to 6.30 | 6.30 to 7.30 | Cc1c(O)cccc1-c1cc(C(N)=O)nc2c1c(C#N)cn2C [Compound 28, 3-cyano-4-(3-hydroxy-2-methylphenyl)-1-methyl-pyrrolo[2,3-b]pyridine-6-carboxamide]
24 | > 7.30 | > 7.30 | CCn1cc(C#N)c2c(-c3c(C)ccc(O)c3C)cc(C(N)=O)nc21 [Compound 29, 3-cyano-1-ethyl-4-(3-hydroxy-2,6-dimethylphenyl)pyrrolo[2,3-b]pyridine-6-carboxamide]
25 | ≤ 5.30 | 5.30 to 6.00 | Cc1ccc(O)c(C)c1-c1cc(C(N)=O)cc2c1cnn2C [Compound 35, 4-(3-hydroxy-2,6-dimethylphenyl)-1-methyl-indazole-6-carboxamide]
26 | ≤ 5.30 | 5.30 to 6.00 | Cc1ccc(O)c(C)c1-c1cc(C(N)=O)cc2nn(C)cc12 [Compound 36, 4-(3-hydroxy-2,6-dimethylphenyl)-2-methyl-indazole-6-carboxamide]
27 | 5.30 to 6.00 | 5.30 to 6.00 | Cc1ccc(O)c(C)c1-c1cc(C(N)=O)cc2cn[nH]c12 [Compound 37, 7-(3-hydroxy-2,6-dimethylphenyl)-1H-indazole-5-carboxamide]
28 | 5.30 to 6.00 | ≤ 5.30 | CNC(=O)c1cc(-c2c(C)ccc(O)c2C)c2[nH]ncc2c1 [Compound 38]
29 | 5.30 to 6.00 | ≤ 5.30 | Cc1ccc(O)c(C)c1-c1cc(C(=O)N(C)C)cc2cn[nH]c12 [Compound 39]
30 | ≤ 5.30 | ≤ 5.30 | Cc1ccc(O)c(C)c1-c1cc(C(N)=O)cc2cnn(C)c12 [Compound 40, 7-(3-hydroxy-2,6-dimethylphenyl)-1-methyl-indazole-5-carboxamide]
